Reference: patent US6376497B1, “Antifungal azole derivatives having a fluorinated vinyl group and process for preparing same” (Korea Research Institute of Chemical Technology, priority 1999, dated 2002)
In brackets after ≈: the same amount, converted by molar mass.

Key:
Assay in all cases: In vitro antifungal activity, microbroth dilution MIC
Format in all cases: cell-based
[1] = system: Cryptococcus neoformans IFM. 40092; conditions: 4 to 48 hours; for Minimal inhibitory concentration(MIC), Cry. neoformans IFM. 40092: RPMI-1640, 35° C., no growth observed; for Minimal inhibitory concentration (MIC): Cry. neoformans IFM. 40092, RPMI-1640, 35° C.
Summary of the method: (§1)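 Broth microdilution adapted from NCCLS M27, in RPMI-1640 with 0.165 M MOPS, pH 7.0. Yeast or mould inoculum at 2×10^3 CFU/ml was mixed 1:1 with DMSO-derived compound solutions (200 to 0.10 μg/ml before mixing) and incubated at 35 °C for 4 to 48 h. MIC was the concentration showing no growth.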

[2] = system: Cryptococcus neoformans B. 42419; conditions: 4 to 48 hours; for Minimal inhibitory concentration(MIC), Cry. neoformans B. 42419: RPMI-1640, 35° C., no growth observed; for Minimal inhibitory concentration (MIC): Cry. neoformans B. 42419, RPMI-1640, 35° C.
Summary of the method: as §1

[3] = system: Cryptococcus neoformans A. 34144; conditions: 4 to 48 hours; for Minimal inhibitory concentration(MIC), Cry. neoformans A. 34144: RPMI-1640, 35° C., no growth observed; for Minimal inhibitory concentration (MIC): Cry. neoformans A. 34144, RPMI-1640, 35° C.
Summary of the method: as §1

Candida albicans C1-2 = conditions: 4 to 48 hours; for Minimal inhibitory concentration(MIC), C. albicans C1-2: RPMI-1640, 35° C., no growth observed; for Minimal inhibitory concentration (MIC): C. albicans C1-2, RPMI-1640, 35° C.
Summary of the method: as §1

[4] = system: Candida albicans A. 10231; conditions: 4 to 48 hours; for Minimal inhibitory concentration(MIC), C. albicans A. 10231: RPMI-1640, 35° C., no growth observed; for Minimal inhibitory concentration (MIC): C. albicans A. 10231, RPMI-1640, 35° C.
Summary of the method: as §1

[5] = system: Torulopsis glabrata B. 16205; conditions: 4 to 48 hours; for Minimal inhibitory concentration(MIC), T. glabrata B. 16205: RPMI-1640, 35° C., no growth observed; for Minimal inhibitory concentration (MIC): T. glabrata B. 16205, RPMI-1640, 35° C.
Summary of the method: as §1

[6] = system: Candida pseudotropicalis K. 11658; conditions: 4 to 48 hours; for Minimal inhibitory concentration(MIC), C. pseudotropicalis K. 11658: RPMI-1640, 35° C., no growth observed; for Minimal inhibitory concentration (MIC): C. pseudotropicalis K. 11658, RPMI-1640, 35° C.
Summary of the method: as §1

[7] = system: Aspergillus furnigatus B. 19119; conditions: 4 to 48 hours; for Minimal inhibitory concentration(MIC), A furnigatus B. 19119: RPMI-1640, 35° C., no growth observed; for Minimal inhibitory concentration (MIC): A furnigatus B. 19119, RPMI-1640, 35° C.
Summary of the method: as §1

[8] = system: Trichophyton mentagrophytes B. 32663; conditions: 4 to 48 hours; for Minimal inhibitory concentration(MIC), T. mentagrophytes B. 32663: RPMI-1640, 35° C., no growth observed; for Minimal inhibitory concentration (MIC): T. mentagrophytes B. 32663, RPMI-1640, 35° C.
Summary of the method: as §1

[9] = system: Candida tropicalis A. 13803; conditions: 4 to 48 hours; for Minimal inhibitory concentration(MIC), C. tropicalis A. 13803: RPMI-1640, 35° C., no growth observed; for Minimal inhibitory concentration (MIC): C. tropicalis A. 13803, RPMI-1640, 35° C.
Summary of the method: as §1

Candida krusei K. 11655 = conditions: 4 to 48 hours; for Minimal inhibitory concentration(MIC), C. krusei K. 11655: RPMI-1640, 35° C., no growth observed; for Minimal inhibitory concentration (MIC): C. krusei K. 11655, RPMI-1640, 35° C.
Summary of the method: as §1

[10] = system: Trichophyton mentagrophytes A. 9129; conditions: 4 to 48 hours; for Minimal inhibitory concentration(MIC), T. mentagrophytes A. 9129: RPMI-1640, 35° C., no growth observed; for Minimal inhibitory concentration (MIC): T. mentagrophytes A. 9129, RPMI-1640, 35° C.
Summary of the method: as §1

[11] = system: Candida albicans IFO. 1385; conditions: 4 to 48 hours; for Minimal inhibitory concentration(MIC), C. albicans IFO. 1385: RPMI-1640, 35° C., no growth observed; for Minimal inhibitory concentration (MIC): C. albicans IFO. 1385, RPMI-1640, 35° C.
Summary of the method: as §1

[12] = system: Candida parapsitosis A. 7330; conditions: 4 to 48 hours; for Minimal inhibitory concentration(MIC), C. parapsitosis A. 7330: RPMI-1640, 35° C., no growth observed; for Minimal inhibitory concentration (MIC): C. parapsitosis A. 7330, RPMI-1640, 35° C.
Summary of the method: as §1

[13] = system: Aspergillus niger A. 16404; conditions: 4 to 48 hours; for Minimal inhibitory concentration(MIC), A. niger A. 16404: RPMI-1640, 35° C., no growth observed; for Minimal inhibitory concentration (MIC): A. niger A. 16404, RPMI-1640, 35° C.
Summary of the method: as §1

SMILES | Minimal inhibitory concentration(MIC), Cry. neoformans IFM. 40092 [1] [µg/mL] | Minimal inhibitory concentration(MIC), Cry. neoformans B. 42419 [2] [µg/mL] | Minimal inhibitory concentration(MIC), Cry. neoformans A. 34144 [3] [µg/mL] | Minimal inhibitory concentration(MIC), C. albicans C1-2 (Candida albicans C1-2) [µg/mL] | Minimal inhibitory concentration(MIC), C. albicans A. 10231 [4] [µg/mL] | Minimal inhibitory concentration(MIC), T. glabrata B. 16205 [5] [µg/mL] | Minimal inhibitory concentration(MIC), C. pseudotropicalis K. 11658 [6] [µg/mL] | Minimal inhibitory concentration(MIC), A furnigatus B. 19119 [7] [µg/mL] | Minimal inhibitory concentration(MIC), T. mentagrophytes B. 32663 [8] [µg/mL] | Minimal inhibitory concentration(MIC), C. tropicalis A. 13803 [9] [µg/mL] | Minimal inhibitory concentration(MIC), C. krusei K. 11655 (Candida krusei K. 11655) [µg/mL] | Minimal inhibitory concentration(MIC), T. mentagrophytes A. 9129 [10] [µg/mL] | Minimal inhibitory concentration(MIC), C. albicans IFO. 1385 [11] [µg/mL] | Minimal inhibitory concentration(MIC), C. parapsitosis A. 7330 [12] [µg/mL] | Minimal inhibitory concentration(MIC), A. niger A. 16404 [13] [µg/mL] | further results
COc1ccc(C(=C(F)OCC2COC(Cn3cncn3)(c3ccc(Cl)cc3Cl)O2)C(F)(F)F)cc1 (mixture of isomers) [Ex. 84] | 0.78 | 1.56 | 1.56 | 100 | >100 | >100 | >100 | >100 | >100 | >100 | >100 | >100 | 6.25 | >100 | >100 | –
FC(=Cc1ccc2c(c1)OCO2)OCC1COC(Cn2ccnc2)(c2ccc(Cl)cc2Cl)O1 (stereo not drawn) [Ex. 12] | – | – | – | – | – | – | – | – | – | – | – | – | – | – | – | Minimal inhibitory concentration (MIC) [1]: 0.39 µg/mL (≈ 0.791 µM); Minimal inhibitory concentration (MIC) [2]: 0.78 µg/mL (≈ 1.58 µM); Minimal inhibitory concentration (MIC) [3]: 1.56 µg/mL (≈ 3.16 µM); Minimal inhibitory concentration (MIC) (Candida albicans C1-2): 25.0 µg/mL (≈ 50.7 µM); Minimal inhibitory concentration (MIC) [4]: 12.5 µg/mL (≈ 25.3 µM); Minimal inhibitory concentration (MIC) [5]: 6.25 µg/mL (≈ 12.7 µM); Minimal inhibitory concentration (MIC) [6]: 3.13 µg/mL (≈ 6.34 µM); Minimal inhibitory concentration (MIC) [7]: 1.56 µg/mL (≈ 3.16 µM); Minimal inhibitory concentration (MIC) [8]: 0.78 µg/mL (≈ 1.58 µM); Minimal inhibitory concentration (MIC) [9]: 50.0 µg/mL (≈ 101 µM); Minimal inhibitory concentration (MIC) (Candida krusei K. 11655): 6.25 µg/mL (≈ 12.7 µM); Minimal inhibitory concentration (MIC) [10]: 0.78 µg/mL (≈ 1.58 µM); Minimal inhibitory concentration (MIC) [11]: 1.56 µg/mL (≈ 3.16 µM); Minimal inhibitory concentration (MIC) [12]: 6.25 µg/mL (≈ 12.7 µM); Minimal inhibitory concentration (MIC) [13]: 3.13 µg/mL (≈ 6.34 µM)
Cc1ccc(C(=C(F)Oc2ccc(OCC3COC(Cn4ccnc4)(c4ccc(F)cc4F)O3)cc2)C(F)(F)F)cc1C (mixture of isomers) [Ex. 110] | 0.39 | 3.13 | 1.56 | 50.0 | 100 | 100 | >100 | >100 | 3.13 | >100 | >100 | 6.25 | 3.13 | >100 | >100 | –
FC(=Cc1cccc(F)c1)OCC1COC(Cn2ccnc2)(c2ccc(F)cc2F)O1 (mixture of isomers) [Ex. 48] | – | – | – | – | – | – | – | – | – | – | – | – | – | – | – | Minimal inhibitory concentration (MIC) [1]: ≦0.10 μg/ml; Minimal inhibitory concentration (MIC) [2]: 0.78 µg/mL; Minimal inhibitory concentration (MIC) [3]: 0.78 µg/mL; Minimal inhibitory concentration (MIC) (Candida albicans C1-2): 25.0 µg/mL; Minimal inhibitory concentration (MIC) [4]: 25.0 µg/mL; Minimal inhibitory concentration (MIC) [5]: 12.5 µg/mL; Minimal inhibitory concentration (MIC) [6]: 12.5 µg/mL; Minimal inhibitory concentration (MIC) [7]: 1.56 µg/mL; Minimal inhibitory concentration (MIC) [8]: ≦0.10 μg/ml; Minimal inhibitory concentration (MIC) [9]: 50.0 µg/mL; Minimal inhibitory concentration (MIC) (Candida krusei K. 11655): 25.0 µg/mL; Minimal inhibitory concentration (MIC) [10]: 0.39 µg/mL; Minimal inhibitory concentration (MIC) [11]: 0.20 µg/mL; Minimal inhibitory concentration (MIC) [12]: 25.0 µg/mL; Minimal inhibitory concentration (MIC) [13]: 6.25 µg/mL
FC(=C(c1ccc(C(F)(F)F)cc1)C(F)(F)F)N1CCN(c2ccc(OCC3COC(Cn4ccnc4)(c4ccc(Cl)cc4Cl)O3)cc2)CC1 (mixture of isomers) [Ex. 130] | 0.20 | 0.78 | 0.78 | >100 | >100 | >100 | 1.56 | >100 | 12.5 | >100 | 1.56 | 25.0 | 3.13 | 1.56 | >100 | –
CCc1ccc(C(=C(F)Oc2ccc(OCC3COC(Cn4ccnc4)(c4ccc(F)cc4F)O3)cc2)C(F)(F)F)cc1 (mixture of isomers) [Ex. 108] | 0.78 | 3.13 | 3.13 | 100 | >100 | >100 | >100 | >100 | 12.5 | >100 | >100 | 50.0 | 6.25 | >100 | >100 | –
FC(Oc1ccc(OCC2COC(Cn3ccnc3)(c3ccc(F)cc3F)O2)cc1)=C(c1ccccc1)C(F)(F)F (mixture of isomers) [Ex. 106] | 0.39 | 1.56 | 1.56 | 50.0 | 100 | 50.0 | 3.13 | >100 | 1.56 | >100 | 3.13 | 3.13 | 1.56 | 3.13 | >100 | –
CCOc1ccc(C(=C(F)OCC2COC(Cn3cncn3)(c3ccc(Cl)cc3Cl)O2)C(F)(F)F)cc1 (mixture of isomers) [Ex. 85] | 0.39 | 1.56 | 1.56 | 100 | 100 | >100 | >100 | >100 | >100 | >100 | >100 | >100 | 25.0 | >100 | >100 | –
